# Assay results as given in patent US10443043B2, “Methods for making induced pluripotent stem cells” (NEW YORK UNIVERSITY, priority 2015, dated 2019).
# Assays:
# Format in all cases: cell-based, mouse
# reprogrammable MEFs = test: Reprogramming of reprogrammable MEFs seeded in bulk, dox-independent colonies; settings: six days dox plus compound, then three days unsupplemented ESC media
# Method: (§1) MEFs (Stadtfeld et al., 2008) and hepatoblasts (Gailhouste, 2012) were isolated from E14.5 embryos and GMPs, CMPs, MEP and LSK cells from either fetal liver or adult bone marrow (Akashi et al., 2000). All cell types used for reprogramming experiments were heterozygous for the inducible OKSM cassette, Rosa26-rtTA and the Oct4-GFP reporter. MEFs were expanded in reduced-oxygen conditions (4%) and used at passages 1 or 2. For reprogramming, cells were seeded in ESC media (DMEM with 15% FBS, L-glutamin, penicillin-streptomycin, nonessential amino acids, β-mercaptoethanol and 1000 U/ml LIF) at the desired density on a layer of irradiated feeder cells in presence of 1 mg/ml doxycycline. If applicable, L-Ascorbic acid (50 ng/μl), CHIR99021 (3 μM), TGFβ RI Kinase Inhibitor II (250 nM) and PD032590 (0.75 μM) were added. For GMPs and other blood progenitors, cultures were supplemented with Flt3-ligand (10 ng/ml) and SCF (20 ng/ml) for the first three days of reprogramming. Media was replenished every two days. To facilitate detection of Oct4-GFP expression in nascent colonies by fluorescent microscopy, reprogramming experiments were conducted in ESC media prepared with FluoroBrite DMEM (Life Technologies) when required. To score factor-independent colonies, dox (and other compounds) were removed by washing cultures twice with PBS and then maintaining them in ESC media for at least three days before colonies were counted by fluorescence microscopy or after alkaline phosphatase staining (Vector Laboratories). For quantification of Oct4-GFP expression, cultures were harvested by trypsin digestion, stained with DAPI or 7-AAD to exclude dead cells, acquired on a LSRII cytometer (BD Biosciences) and analyzed with FlowJo software (Tree Star Inc.).
# The aforementioned compounds were tested using “reprogrammable MEFs” (Stadtfeld et al., 2010) engineered to express a doxycycline (dox)-inducible cassette encoding OKSM (Sommer et al., 2009) from a single defined genomic position and a GFP reporter from the endogenous Oct4 locus, whose expression is a hallmark of the pluripotent state. […]
# GMPs [1] = test: Bulk reprogramming of granulocyte-macrophage progenitors, dox-independent colonies
# Method: as §1, with “For GMPs and other blood progenitors, cultures were supplemented with Flt3-ligand (10 ng/ml) and SCF (20 ng/ml) for the first three days of reprogramming. Media was replenished every two days. To facilitate detection of Oct4-GFP expression in nascent colonies by fluorescent microscopy, reprogramming experiments were conducted in ESC media prepared with FluoroBrite DMEM (Life Technologies) when required.” left out, “Inc.). […]” for “Inc.).”
# [2] = system: SSEA1+ day 4 intermediates of reprogrammable MEFs; test: Microarray and gene ontology analysis of day 4 reprogramming intermediates; settings: individual chemical
# Text: For the study of reprogramming intermediates, cultures of reprogrammable MEFs at day 4 in presence of OKSM expression were harvested and stained with biotinylated anti-SSEA1 antibody (MC-480, eBioscience), followed by APC-conjugated Streptavidin and anti-APC microbeads (Milteny Biotec). SSEA1^+ cells were enriched to ˜90% purity using MACS separation columns (Milteny Biotec) according to the manufacturer's instructions. Total RNA extracted with the miRNeasy mini kit (QIAGEN) with a RIN value >8 was subjected to transcriptional analyses with Affymetrix mouse genome 430 2.0 mRNA expression microarrays followed by bioinformatic analyses.
# Pair-wise differential expression of MEFs, ESCs, GMPs and HEPs was assessed using a t-test and the resulting p-values were adjusted for multiple hypothesis testing as by the Benjamini & Hochberg procedure. […] FDR was assessed using the following methodology. […] Briefly, differential expression was assessed for every Affymetrix transcript probe between samples. As a preprocessing step, quantiles were normalized across samples and replicates, and subsequently fold changes were computed for each probe across the two replicates of each sample. The false discovery rate was computed by comparing the distribution of fold changes against the distribution of fold changes between replicates of the same sample.
# GMPs [3] = test: Single cell seeding of DsRed GMPs, Oct4-GFP expression; settings: flow cytometry, six days
# Method: as §1, with “For GMPs and other blood progenitors, cultures were supplemented with Flt3-ligand (10 ng/ml) and SCF (20 ng/ml) for the first three days of reprogramming. Media was replenished every two days. To facilitate detection of Oct4-GFP expression in nascent colonies by fluorescent microscopy, reprogramming experiments were conducted in ESC media prepared with FluoroBrite DMEM (Life Technologies) when required.” left out, “Inc.). […]” for “Inc.).”
# hepatoblasts = test: Reprogramming of hepatoblasts, dox-independent colonies; settings: compound alone
# Method: as §1, with “For GMPs and other blood progenitors, cultures were supplemented with Flt3-ligand (10 ng/ml) and SCF (20 ng/ml) for the first three days of reprogramming. Media was replenished every two days. To facilitate detection of Oct4-GFP expression in nascent colonies by fluorescent microscopy, reprogramming experiments were conducted in ESC media prepared with FluoroBrite DMEM (Life Technologies) when required.” left out, “Inc.). […]” for “Inc.).”
# β-catenin = β-catenin immunofluorescence in GMPs; settings: purified GMPs cultured in CHIR, two days
# Text: FIG. 8A-8G. Related to FIG. 3. (8A) Fluorescence images of DsRed and Oct4-GFP expression in a representative GMP-derived colony derived upon culture in dox+CHIR for six days. (8B) Percentage of Oct4-GFP^+ cells in successfully reprogramming colonies after single cell seeding of GMPs in dox+CHIR or dox+3c, respectively (n=10 clonal colonies for each condition). (8C) AP staining of dox-independent colonies derived from LSK, GMP, MEP and CMPs in dox, dox+CHIR or dox+3c after six days of culture. (8D) Percentage of Oct4-GFP^+ cells in colonies obtained after single cell seeding of hepatoblasts and culture under the indicated conditions for six days (n=10 clonal colonies). (8E) IF images of β-catenin staining in cells derived from GMPs cultured under dox or dox+CHIR for two days. White arrows highlight representative cells positive for β-catenin expression. […]
# Cells were fixed with paraformaldehyde, permeabilized and stained with primary antibodies against Oct4 (Santa Cruz, sc-8628), Nanog (Abcam, ab808992), Utf1 (Abcam, ab24273), Sall4 (Abcam, ab29112), Lin28 (Abcam, ab46020) and β-catenin (Sigma, C7207) followed by staining with appropriate secondary antibodies conjugated to either Alexa Fluor 555 or 647 (Invitrogen). Images were acquired with a Neo 5.5 cSMOS camera (Andor) and processed and analyzed using NIS-Elements and Adobe Photoshop. […]
Structure (SMILES),"dox-independent colonies, efficiency of input cells (reprogrammable MEFs)",effect on iPSC formation from blood progenitor cells (GMPs [1]),aspect of the somatic program whose silencing is facilitated (GO analysis) [2],average GFP labeling index (Oct4-GFP+ cells in colonies) (GMPs [3]),effect on number of iPSC colonies from hepatoblasts (hepatoblasts),β-catenin protein level (β-catenin)
"O=C1O[C@H]([C@@H](O)CO)C(O)=C1O [AA, ascorbic acid]",about 2%,did not significantly enhance,mesodermal differentiation potential,,,
Cc1c[nH]c(-c2cnc(NCCNc3ccc(C#N)cn3)nc2-c2ccc(Cl)cc2Cl)n1 [CHIR],0.5%,,,over 90%,little beneficial effect,rapidly accumulated
Cc1cccc(-c2[nH]ncc2-c2ccc3ncccc3n2)n1 [iAlk5],about 2%,,collagen synthesis,,,
